Source: patent US20220362353A1, “DRUG COMBINATION FOR PREVENTING OR TREATING IRRITABLE BOWEL SYNDROME” (GUANGZHOU CENTURY CLINICAL RESEARCH CO., LTD, priority 2019, published 2022)

Key:
[1] = system: irritable bowel syndrome model animals; experiment: Electromyography (EMG) test of external oblique abdominal muscles after colorectal distension; assay type: in vivo, SD rats (Sprague-Dawley rats); settings: for AUC (%) of EMG of colorectal distension at different pressures (mean ± SD): 3 months old, after 1-month daily gavage, normalized to average baseline amplitude (100%)
Protocol: In this example, the irritable bowel syndrome model was induced by daily applying colorectal distension as a stimulating factor to neonatal SD rats (Sprague-Dawley rats) from 8 days old to 21 days old. This model animal had visceral hypersensitivity of irritable bowel syndrome and without colonitis and mucosal injury. Colorectal distension stimulation was not given any more from 21 days old to 8 weeks old. A test drug or placebo was administered daily by gavage from 8 weeks old to 3 months old. On the 8 weeks old (before the beginning of the 1-month drug administration period) and about 3 months old (after the end of the 1-month drug administration period), behavioral and neural responses of rats to colorectal distention stimulation were tested by an abdominal wall withdrawal reflex test and an electromyography test. 8-day-old neonatal male SD rats with normal body weight were exposed to a 12:12 hr light-dark cycle. Every 12 neonatal rats and 1 adult female rat were co-bred with rat milk until 25 days old. Then every 4 neonatal rats were fed in the same cage, and they were allowed to eat and drink freely. The SD rats were randomly divided into a normal control group, a model group, a dosmalfate group, a lysozyme group, a first combination group (a dosage ratio of dosmalfate to lysozyme was 0.05:1), a second combination group (a dosage ratio of dosmalfate to lysozyme was 0.1:1), a third combination group (a dosage ratio of dosmalfate to lysozyme was 10:1), and a fourth combination group (a dosage ratio of dosmalfate to lysozyme was 20:1), and 12 animals were assigned to each group. Except for normal control group, colorectal distension (CRD) stimulation was applied to the rats in other groups every day from 8 days old to 21 days old to induce irritable bowel syndrome. The concrete operation method was as follows: a flexible balloon (with a polytetrafluoroethylene catheter; the balloon should be inflated overnight before the experiment so that it has better compliance) made of the fingers of surgical gloves, was smeared with vaseline, inserted from the anus of the rat to the colon and then fixed at the tail distanced away from the anus by 2 cm. The balloon was connected with a valve via the catheter, and the valve was additionally connected with a sphygmomanometer. Rats were placed in small plastic cages to restrict their turning and acclimatized for 30 minutes. The balloon was slowly inflated to 60 mm Hg with the sphygmomanometer, and deflated after stimulation for 20 seconds; the stimulation was repeated twice within 1 hour (with an interval of 30 minutes each time). Except for normal control group and model group, test drugs (wetted in 0.5% sodium carboxymethyl cellulose solution) were administrated to the rats in the other groups by gavage daily from 8 weeks old to 3 months old, and the dosage was 8 ml. The visceral hypersensitivity (neural response) of rats to colorectal distension was quantified by measuring the electromyographic activity of external oblique abdominal muscles. When the rats in each group were 3 months old (after the end of the 1-month drug administration period), they were subjected to abdominal wall withdrawal reflex test followed by EMG test after abdominal wall withdrawal reflex test. On the second day when 3-month-old rats in each group were subjected to abdominal wall withdrawal reflex test, an appropriate amount of pentobarbital solution (50 mg/ml) was injected into the abdominal cavities of the rats, and the rats were fully anesthetized. The hairs on the lower abdomen and the back of the neck were cut, a needle electrode (tungsten microelectrode) was implanted into the left side of the abdomen of the rat, fixed in the muscle layer of the external oblique abdominal muscle, and the electrode wire was crossed through the subcutaneous of the left side of the rat to a small incision at the rear neck and out of the small incision. […]

[2] = system: irritable bowel syndrome model animals; experiment: Abdominal withdrawal reflex (AWR) test after colorectal distension; assay type: in vivo, SD rats (Sprague-Dawley rats); settings: for Abdominal withdrawal reflex scores of colorectal distension at different pressures (mean ± SD): 3 months old, after 1-month daily gavage, score 0-4
Protocol: In this example, the irritable bowel syndrome model was induced by daily applying colorectal distension as a stimulating factor to neonatal SD rats (Sprague-Dawley rats) from 8 days old to 21 days old. This model animal had visceral hypersensitivity of irritable bowel syndrome and without colonitis and mucosal injury. Colorectal distension stimulation was not given any more from 21 days old to 8 weeks old. A test drug or placebo was administered daily by gavage from 8 weeks old to 3 months old. On the 8 weeks old (before the beginning of the 1-month drug administration period) and about 3 months old (after the end of the 1-month drug administration period), behavioral and neural responses of rats to colorectal distention stimulation were tested by an abdominal wall withdrawal reflex test and an electromyography test. 8-day-old neonatal male SD rats with normal body weight were exposed to a 12:12 hr light-dark cycle. Every 12 neonatal rats and 1 adult female rat were co-bred with rat milk until 25 days old. Then every 4 neonatal rats were fed in the same cage, and they were allowed to eat and drink freely. The SD rats were randomly divided into a normal control group, a model group, a dosmalfate group, a lysozyme group, a first combination group (a dosage ratio of dosmalfate to lysozyme was 0.05:1), a second combination group (a dosage ratio of dosmalfate to lysozyme was 0.1:1), a third combination group (a dosage ratio of dosmalfate to lysozyme was 10:1), and a fourth combination group (a dosage ratio of dosmalfate to lysozyme was 20:1), and 12 animals were assigned to each group. Except for normal control group, colorectal distension (CRD) stimulation was applied to the rats in other groups every day from 8 days old to 21 days old to induce irritable bowel syndrome. The concrete operation method was as follows: a flexible balloon (with a polytetrafluoroethylene catheter; the balloon should be inflated overnight before the experiment so that it has better compliance) made of the fingers of surgical gloves, was smeared with vaseline, inserted from the anus of the rat to the colon and then fixed at the tail distanced away from the anus by 2 cm. The balloon was connected with a valve via the catheter, and the valve was additionally connected with a sphygmomanometer. Rats were placed in small plastic cages to restrict their turning and acclimatized for 30 minutes. The balloon was slowly inflated to 60 mm Hg with the sphygmomanometer, and deflated after stimulation for 20 seconds; the stimulation was repeated twice within 1 hour (with an interval of 30 minutes each time). Except for normal control group and model group, test drugs (wetted in 0.5% sodium carboxymethyl cellulose solution) were administrated to the rats in the other groups by gavage daily from 8 weeks old to 3 months old, and the dosage was 8 ml. The abdominal wall withdrawal reflex test was used to detect behavioral responses of rats to colorectal distension stimulation. This test was performed when rats in respective groups were 8 weeks old (before the start of the 1-month drug administration period) and 3 months old (after the end of the 1-month drug administration period). The rats were fasted overnight before undergoing the abdominal wall withdrawal reflex test, so as to reduce gastrointestinal contents. During the test, a flexible balloon (with a thin-walled polytetrafluoroethylene catheter; the balloon should be inflated overnight before the experiment so that it has better compliance) made of the fingers of surgical gloves, was smeared with vaseline and inserted from the anus of the rat by 7 cm to the colon and fixed at the caudal point by 2 cm distanced away from the anus. The balloon was connected with the valve via the catheter, and the valve was additionally connected with a sphygmomanometer. Rats were placed in small plastic cages to restrict their turning and acclimatized for 30 minutes. […]

| Substance | AUC (%) of EMG of colorectal distension at different pressures (mean ± SD) ([1]; 20 mm Hg) [%] | AUC (%) of EMG of colorectal distension at different pressures (mean ± SD) ([1]; 40 mm Hg) [%] | AUC (%) of EMG of colorectal distension at different pressures (mean ± SD) ([1]; 60 mm Hg) | EMG test result compared with model group, in words ([1]; after administration) | Abdominal withdrawal reflex scores of colorectal distension at different pressures (mean ± SD) ([2]; 20 mm Hg) | Abdominal withdrawal reflex scores of colorectal distension at different pressures (mean ± SD) ([2]; 40 mm Hg) | Abdominal withdrawal reflex scores of colorectal distension at different pressures (mean ± SD) ([2]; 60 mm Hg) | abdominal wall withdrawal reflex values compared with model group, in words ([2]; after administration) |
| --- | --- | --- | --- | --- | --- | --- | --- | --- |
| Lysozyme | 303 ± 36 | 394 ± 60 | 601 ± 60 ^ % | no significant difference | 2.11 ± 0.33 | 2.69 ± 0.41 | 3.56 ± 0.36 | no significant difference |
| diosmin heptadiene (bisulfate) aluminum complex [Dosmalfate, reference compound] | 332 ± 39 | 445 ± 99 | 644 ± 117 ^ % | – | 2.25 ± 0.45 | 2.56 ± 0.30 | 3.64 ± 0.30 | – |
